Source: PMC9851200, “Multiparameter phenotypic screening for endogenous TFEB and TFE3 translocation identifies novel chemical series modulating lysosome function” (Autophagy, 2022)

What was measured:
Assay type in all cases: binding
[1] = biological target: kinases (KINOMEscan panel) (Homo sapiens, UniProt P42336, E545K); conditions: NEW KINOMEscan
[2] = biological target: kinases (KINOMEscan panel) (Homo sapiens, UniProt Q9BUB5); conditions: NEW KINOMEscan
[3] = biological target: kinases (KINOMEscan panel) (Homo sapiens, UniProt P10721, D816H); conditions: NEW KINOMEscan
kinases (KINOMEscan panel) (Homo sapiens, UniProt P10721, D816H), sequence (P10721 26-976 D816H): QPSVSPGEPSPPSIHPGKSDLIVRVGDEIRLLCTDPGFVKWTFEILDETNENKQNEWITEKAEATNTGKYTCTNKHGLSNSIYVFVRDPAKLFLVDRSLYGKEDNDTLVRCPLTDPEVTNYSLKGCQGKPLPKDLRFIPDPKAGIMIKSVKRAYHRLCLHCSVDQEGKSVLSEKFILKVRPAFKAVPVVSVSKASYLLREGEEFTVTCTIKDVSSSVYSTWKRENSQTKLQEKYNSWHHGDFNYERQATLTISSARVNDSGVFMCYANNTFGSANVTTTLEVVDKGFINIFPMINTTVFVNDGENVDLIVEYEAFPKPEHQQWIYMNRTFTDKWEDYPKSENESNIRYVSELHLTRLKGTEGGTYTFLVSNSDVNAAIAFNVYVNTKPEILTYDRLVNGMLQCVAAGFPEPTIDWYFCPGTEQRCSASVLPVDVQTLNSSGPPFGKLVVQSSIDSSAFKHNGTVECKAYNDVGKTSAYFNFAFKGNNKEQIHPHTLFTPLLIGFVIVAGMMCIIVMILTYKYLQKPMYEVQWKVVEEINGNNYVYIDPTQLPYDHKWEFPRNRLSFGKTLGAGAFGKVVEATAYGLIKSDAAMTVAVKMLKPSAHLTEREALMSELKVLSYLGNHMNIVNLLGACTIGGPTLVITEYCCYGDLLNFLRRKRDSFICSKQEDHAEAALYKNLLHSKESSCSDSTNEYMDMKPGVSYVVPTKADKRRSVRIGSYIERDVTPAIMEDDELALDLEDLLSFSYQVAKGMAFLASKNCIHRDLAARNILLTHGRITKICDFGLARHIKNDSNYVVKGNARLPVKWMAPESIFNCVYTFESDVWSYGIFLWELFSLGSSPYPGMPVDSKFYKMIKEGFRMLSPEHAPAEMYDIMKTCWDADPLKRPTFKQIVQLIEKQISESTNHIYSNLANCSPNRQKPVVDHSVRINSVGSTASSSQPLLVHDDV

[4] = biological target: kinases (KINOMEscan panel) (Homo sapiens, UniProt Q05655); conditions: kinase PRKCD; NEW KINOMEscan
kinases (KINOMEscan panel) (Homo sapiens, UniProt Q05655), sequence (Q05655 whole entry): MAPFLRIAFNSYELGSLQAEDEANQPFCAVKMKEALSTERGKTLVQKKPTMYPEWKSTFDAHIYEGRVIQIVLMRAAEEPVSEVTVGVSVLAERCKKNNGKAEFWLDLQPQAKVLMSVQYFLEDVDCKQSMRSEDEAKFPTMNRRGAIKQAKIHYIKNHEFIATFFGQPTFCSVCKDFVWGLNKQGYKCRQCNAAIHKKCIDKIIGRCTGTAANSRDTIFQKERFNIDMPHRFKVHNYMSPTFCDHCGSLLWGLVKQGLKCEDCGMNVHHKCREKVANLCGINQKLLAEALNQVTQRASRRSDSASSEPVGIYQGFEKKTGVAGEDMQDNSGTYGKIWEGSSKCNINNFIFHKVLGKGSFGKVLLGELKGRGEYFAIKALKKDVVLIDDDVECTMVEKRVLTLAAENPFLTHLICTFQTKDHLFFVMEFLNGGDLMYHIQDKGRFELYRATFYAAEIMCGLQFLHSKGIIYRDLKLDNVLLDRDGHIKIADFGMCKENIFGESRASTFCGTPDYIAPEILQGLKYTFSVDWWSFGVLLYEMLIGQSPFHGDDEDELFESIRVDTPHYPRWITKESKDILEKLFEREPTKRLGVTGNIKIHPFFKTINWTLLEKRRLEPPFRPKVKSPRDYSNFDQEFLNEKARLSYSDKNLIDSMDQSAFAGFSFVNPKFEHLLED

[5] = biological target: T1, kinases (KINOMEscan panel) (Homo sapiens, UniProt Q8NG66); conditions: NEW KINOMEscan
T1 sequence (Q8NG66 1-645): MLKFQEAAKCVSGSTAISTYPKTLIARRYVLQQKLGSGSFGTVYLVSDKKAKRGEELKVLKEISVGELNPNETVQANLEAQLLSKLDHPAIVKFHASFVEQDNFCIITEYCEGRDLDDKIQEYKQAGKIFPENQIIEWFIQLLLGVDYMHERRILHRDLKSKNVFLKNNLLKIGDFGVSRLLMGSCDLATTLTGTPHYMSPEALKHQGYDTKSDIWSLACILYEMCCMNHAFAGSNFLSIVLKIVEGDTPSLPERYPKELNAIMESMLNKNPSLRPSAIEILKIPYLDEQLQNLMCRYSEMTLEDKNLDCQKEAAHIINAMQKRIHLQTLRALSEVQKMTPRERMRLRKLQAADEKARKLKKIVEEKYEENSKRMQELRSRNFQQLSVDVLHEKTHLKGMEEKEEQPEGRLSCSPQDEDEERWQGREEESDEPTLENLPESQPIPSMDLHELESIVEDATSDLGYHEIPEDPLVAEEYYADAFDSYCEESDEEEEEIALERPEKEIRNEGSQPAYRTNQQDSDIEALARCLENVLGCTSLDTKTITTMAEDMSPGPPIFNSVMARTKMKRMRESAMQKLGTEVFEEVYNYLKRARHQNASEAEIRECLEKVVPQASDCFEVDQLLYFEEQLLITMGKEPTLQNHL

[6] = biological target: T2, kinases (KINOMEscan panel) (Homo sapiens, UniProt Q06418); conditions: NEW KINOMEscan
T2 sequence (Q06418 41-890): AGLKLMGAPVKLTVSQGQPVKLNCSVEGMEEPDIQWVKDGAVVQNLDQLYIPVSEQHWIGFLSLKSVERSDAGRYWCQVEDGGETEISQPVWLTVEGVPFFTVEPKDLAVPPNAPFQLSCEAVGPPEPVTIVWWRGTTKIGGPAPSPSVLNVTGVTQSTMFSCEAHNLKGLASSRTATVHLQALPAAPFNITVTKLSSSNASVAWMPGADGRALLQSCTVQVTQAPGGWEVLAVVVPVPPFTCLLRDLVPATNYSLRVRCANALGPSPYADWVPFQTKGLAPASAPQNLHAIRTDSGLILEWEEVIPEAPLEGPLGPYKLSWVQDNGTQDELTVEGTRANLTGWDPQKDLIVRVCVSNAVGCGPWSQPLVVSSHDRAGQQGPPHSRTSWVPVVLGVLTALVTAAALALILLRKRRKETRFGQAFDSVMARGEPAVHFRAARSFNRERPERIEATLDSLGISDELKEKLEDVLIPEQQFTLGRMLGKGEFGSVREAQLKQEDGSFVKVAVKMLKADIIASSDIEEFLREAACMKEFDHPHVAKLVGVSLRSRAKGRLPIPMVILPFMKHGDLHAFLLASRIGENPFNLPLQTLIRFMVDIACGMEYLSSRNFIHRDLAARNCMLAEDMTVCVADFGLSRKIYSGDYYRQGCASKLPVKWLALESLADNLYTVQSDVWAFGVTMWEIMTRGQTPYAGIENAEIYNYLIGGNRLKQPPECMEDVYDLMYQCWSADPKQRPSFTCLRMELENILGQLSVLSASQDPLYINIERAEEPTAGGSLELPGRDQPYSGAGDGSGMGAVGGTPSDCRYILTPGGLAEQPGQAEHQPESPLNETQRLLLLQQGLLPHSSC

[7] = biological target: kinases (KINOMEscan panel) (Homo sapiens, UniProt O75116); conditions: kinase ROCK2; NEW KINOMEscan
kinases (KINOMEscan panel) (Homo sapiens, UniProt O75116), sequence (O75116 whole entry): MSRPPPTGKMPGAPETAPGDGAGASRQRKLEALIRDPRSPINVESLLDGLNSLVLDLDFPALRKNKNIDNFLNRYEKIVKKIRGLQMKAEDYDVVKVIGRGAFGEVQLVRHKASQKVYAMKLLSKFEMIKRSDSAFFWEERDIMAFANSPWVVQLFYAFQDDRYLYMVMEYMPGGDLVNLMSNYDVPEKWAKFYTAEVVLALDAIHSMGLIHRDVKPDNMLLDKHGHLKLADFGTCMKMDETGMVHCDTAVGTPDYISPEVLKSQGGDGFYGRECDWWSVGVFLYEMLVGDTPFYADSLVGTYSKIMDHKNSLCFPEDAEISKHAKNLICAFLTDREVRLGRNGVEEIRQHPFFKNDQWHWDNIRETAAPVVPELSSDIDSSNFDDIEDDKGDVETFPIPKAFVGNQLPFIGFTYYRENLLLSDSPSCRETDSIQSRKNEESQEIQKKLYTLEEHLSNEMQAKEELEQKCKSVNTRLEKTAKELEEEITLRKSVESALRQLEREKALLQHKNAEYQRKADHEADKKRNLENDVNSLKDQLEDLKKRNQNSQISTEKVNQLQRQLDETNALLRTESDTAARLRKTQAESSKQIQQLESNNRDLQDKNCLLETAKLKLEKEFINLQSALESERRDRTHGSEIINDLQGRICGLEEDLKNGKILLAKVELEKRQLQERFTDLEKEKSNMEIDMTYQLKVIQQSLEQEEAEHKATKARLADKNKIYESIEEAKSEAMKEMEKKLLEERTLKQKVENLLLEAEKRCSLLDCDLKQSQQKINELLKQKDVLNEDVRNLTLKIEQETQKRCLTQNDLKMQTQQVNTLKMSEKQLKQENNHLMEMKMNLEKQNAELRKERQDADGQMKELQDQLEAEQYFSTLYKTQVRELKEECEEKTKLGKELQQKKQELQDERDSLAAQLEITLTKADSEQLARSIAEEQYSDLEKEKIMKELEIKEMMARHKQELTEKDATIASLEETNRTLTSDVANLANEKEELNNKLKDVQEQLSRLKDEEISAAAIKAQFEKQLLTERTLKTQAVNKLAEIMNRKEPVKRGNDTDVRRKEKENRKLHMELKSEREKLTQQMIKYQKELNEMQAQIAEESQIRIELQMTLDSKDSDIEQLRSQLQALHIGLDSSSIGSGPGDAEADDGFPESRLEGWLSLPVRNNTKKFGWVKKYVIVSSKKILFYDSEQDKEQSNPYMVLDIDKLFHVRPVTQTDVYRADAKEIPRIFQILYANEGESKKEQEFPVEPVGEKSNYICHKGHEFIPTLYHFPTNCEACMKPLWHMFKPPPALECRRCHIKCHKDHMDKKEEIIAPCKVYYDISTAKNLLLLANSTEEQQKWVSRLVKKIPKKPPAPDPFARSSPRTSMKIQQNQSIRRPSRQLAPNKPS

[8] = biological target: T3, kinases (KINOMEscan panel) (Homo sapiens, UniProt Q9UHD2); conditions: TBK1; NEW KINOMEscan
T3 sequence (Q9UHD2 1-729): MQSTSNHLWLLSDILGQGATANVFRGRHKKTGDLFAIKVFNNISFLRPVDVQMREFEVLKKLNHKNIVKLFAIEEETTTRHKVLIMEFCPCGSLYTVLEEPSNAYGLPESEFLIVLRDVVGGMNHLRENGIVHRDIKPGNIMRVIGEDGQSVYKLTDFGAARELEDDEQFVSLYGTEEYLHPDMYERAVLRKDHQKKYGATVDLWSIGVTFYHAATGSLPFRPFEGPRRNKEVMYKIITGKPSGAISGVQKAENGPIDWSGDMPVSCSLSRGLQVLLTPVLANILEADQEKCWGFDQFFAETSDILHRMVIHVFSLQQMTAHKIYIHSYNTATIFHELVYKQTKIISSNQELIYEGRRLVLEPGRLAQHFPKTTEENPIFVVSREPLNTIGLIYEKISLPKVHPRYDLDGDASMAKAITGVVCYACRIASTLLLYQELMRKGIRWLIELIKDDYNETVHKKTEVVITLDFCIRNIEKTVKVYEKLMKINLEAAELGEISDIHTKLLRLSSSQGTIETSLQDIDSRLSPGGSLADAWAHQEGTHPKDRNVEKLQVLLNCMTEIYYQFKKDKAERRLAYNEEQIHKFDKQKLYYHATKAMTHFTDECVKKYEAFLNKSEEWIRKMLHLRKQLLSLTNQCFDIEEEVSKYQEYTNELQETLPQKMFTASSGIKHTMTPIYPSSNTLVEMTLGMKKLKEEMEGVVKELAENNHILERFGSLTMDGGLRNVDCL

[9] = biological target: kinases (KINOMEscan panel) (Homo sapiens, UniProt P42336, E545A); conditions: NEW KINOMEscan
kinases (KINOMEscan panel) (Homo sapiens, UniProt P42336, E545A), sequence (P42336 whole entry E545A): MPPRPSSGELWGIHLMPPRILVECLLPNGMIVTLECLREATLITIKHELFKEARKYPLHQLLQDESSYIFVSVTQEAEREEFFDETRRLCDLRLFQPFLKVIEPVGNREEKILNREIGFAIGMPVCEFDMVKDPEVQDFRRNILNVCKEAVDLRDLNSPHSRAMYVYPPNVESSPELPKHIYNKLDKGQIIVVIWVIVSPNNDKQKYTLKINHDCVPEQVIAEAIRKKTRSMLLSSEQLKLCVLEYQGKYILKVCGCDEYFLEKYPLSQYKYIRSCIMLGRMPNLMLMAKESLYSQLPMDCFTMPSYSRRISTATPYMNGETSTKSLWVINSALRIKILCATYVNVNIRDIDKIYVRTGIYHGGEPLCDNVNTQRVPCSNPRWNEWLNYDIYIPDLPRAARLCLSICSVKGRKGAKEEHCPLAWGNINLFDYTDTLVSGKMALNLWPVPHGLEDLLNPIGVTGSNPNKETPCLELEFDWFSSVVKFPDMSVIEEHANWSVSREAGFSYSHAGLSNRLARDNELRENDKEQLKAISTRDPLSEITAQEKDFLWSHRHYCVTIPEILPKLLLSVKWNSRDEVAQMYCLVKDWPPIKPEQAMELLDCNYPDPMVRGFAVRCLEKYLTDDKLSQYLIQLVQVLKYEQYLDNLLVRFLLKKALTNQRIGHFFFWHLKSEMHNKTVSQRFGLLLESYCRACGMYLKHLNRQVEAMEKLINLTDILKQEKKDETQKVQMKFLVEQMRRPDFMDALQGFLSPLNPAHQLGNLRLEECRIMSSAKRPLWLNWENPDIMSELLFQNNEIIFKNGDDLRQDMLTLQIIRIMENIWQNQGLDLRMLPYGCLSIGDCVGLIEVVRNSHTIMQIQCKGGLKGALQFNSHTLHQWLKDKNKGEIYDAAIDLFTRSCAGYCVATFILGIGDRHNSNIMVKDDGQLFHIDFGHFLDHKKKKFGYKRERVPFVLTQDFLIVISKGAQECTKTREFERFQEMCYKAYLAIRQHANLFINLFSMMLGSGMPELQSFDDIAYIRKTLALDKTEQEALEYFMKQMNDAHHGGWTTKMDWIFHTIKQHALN

[10] = biological target: kinases (KINOMEscan panel) (Homo sapiens, UniProt P42336, M1043I); conditions: NEW KINOMEscan
kinases (KINOMEscan panel) (Homo sapiens, UniProt P42336, M1043I), sequence (P42336 whole entry M1043I): as the sequence (P42336 whole entry E545A) above, with A545E, M1043I counted along it

kinases (KINOMEscan panel) (Homo sapiens, UniProt Q9BUB5), sequence (Q9BUB5 whole entry): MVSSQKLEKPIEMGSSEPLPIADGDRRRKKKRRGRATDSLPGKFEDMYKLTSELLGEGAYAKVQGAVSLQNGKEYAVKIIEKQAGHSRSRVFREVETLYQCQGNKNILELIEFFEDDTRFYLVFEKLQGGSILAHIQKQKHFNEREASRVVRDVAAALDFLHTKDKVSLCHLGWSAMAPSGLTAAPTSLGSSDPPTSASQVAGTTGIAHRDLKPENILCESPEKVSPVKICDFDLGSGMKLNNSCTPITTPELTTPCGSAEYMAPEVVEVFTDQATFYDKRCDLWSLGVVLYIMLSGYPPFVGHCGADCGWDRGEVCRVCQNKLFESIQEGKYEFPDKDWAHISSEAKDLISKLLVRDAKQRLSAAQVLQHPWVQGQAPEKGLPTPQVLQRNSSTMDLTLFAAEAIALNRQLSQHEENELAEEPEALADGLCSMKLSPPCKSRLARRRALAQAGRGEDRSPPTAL
kinases (KINOMEscan panel) (Homo sapiens, UniProt P42336, E545K), sequence (P42336 whole entry E545K): as the sequence (P42336 whole entry E545A) above, with A545K counted along it

SMILES	KINOMEscan PIK3CA(E545K) [1]	KINOMEscan MKNK1 [2]	KINOMEscan KIT(D816H) [3]	KINOMEscan PRKCD [4]	KINOMEscan NEK11 [5]	KINOMEscan TYRO3 [6]	KINOMEscan ROCK2 [7]	KINOMEscan TBK1 [8]	KINOMEscan PIK3CA(E545A) [9]	KINOMEscan PIK3CA(M1043I) [10]
Cc1cccc(-c2nc(Nc3ccc4nn(C)cc4c3)c3ccccc3n2)n1 [NK167]	67	0	13	21	0	4	0	44	31	17
Cc1cccc(-c2nc(N(C)c3ccc4ncsc4c3)c3ccccc3n2)n1 [NK-161]	40	7	16	16	2	21	0	25	14	10
